Experimental data reported in patent US20240251785A1, “SMALL MOLECULE ANTAGONISTS AND AGONISTS OF ARTHROPOD KININ RECEPTORS FOR PEST CONTROL” (The Texas A&M University System, priority 2021, published 2024).
pEC50, pIC50: −log10 of the molar value. Where two headings read alike, the source gives them in different places. Where no end group is shown, it is not given here.

How the values were obtained:
[1] = tested on: Human dermal fibroblasts (HDF) cells; test: Cytotoxicity assay (resazurin); type: cell-based; conditions: Human dermal fibroblasts cells; tested at 20 μcool L^−1
[2] = tested on: isolated hindguts from females of the mosquito Aedes aegypti; test: Hindgut contraction inhibition assay; conditions: for effect on hindgut contraction elicited by 1728, in words: compound 100 μmol L^−1, 5 min, then 1728 10 μmol L^−1, 1 h
Method: A mosquito colony of Ae. aegypti (Diptera: Culicidae), Liverpool strain, was maintained at 26.5° C. in a 16 h:8 h, light:dark photoperiod and provided with 10% sugar water, as described previously.^31 For the experiment, 3-5-day-old females were used, and the assay was modified based on our previous protocol.^33 A group of six female mosquitoes were cold-anesthetized on a Petri dish placed on ice, where both wings were removed. Mosquitoes became active when the plate was removed from the ice. The dissection dish was filled with Ringer's solution (150 mmol L^−1 NaCl, 25 mmol L^−1 HEPES, 3.4 mmol L^−1 KCl, 7.5 mmol L^−1 NaOH, 1.8 mmol L^−1 NaHCO3. 1 mmol L^−1 MgSO4, 1.7 mmol L^−1 CaCl2 and 5 mmol L^−1 glucose, pH 7.1) at room temperature. To dissect the hindgut of each mosquito, their head and thorax were removed with forceps, and the abdomen was submerged in the Ringer solution. The hindgut, ovaries and Malpighian tubules (MTs), and midgut were taken out by pulling the last segment of the abdomen under the Ringer solution. Then, the ovaries and the majority of the midgut were removed using scissors leaving the intact hindgut and MTs. The isolated tissue was transferred with forceps, gripping on the cuticle of the last segment, into a drop of 30 μL Ringer solution in a 12-well-plate (Greiner Bio-One®, 665,102). After six mosquitoes were dissected as a group, paraffin oil (1-2 mL) was added to each well to cover the saline. The cuticle of the last abdominal segment was drawn out of the Ringer solution into the oil for better observation of the hindgut contraction. The tissues were filmed using an Olympus SZ60 camera (Olympus America Inc., Center Valley, PA, USA) mounted on a dissecting microscope.
First, the hindgut basal contraction rate was recorded by filming each tissue for 60 s. […] After 5 min of incubation at room temperature, 15 μL kinin agonist analog 1728 solution (4×in Ringer solution) was added to the Ringer solution to reach a final concentration of 10 μmol L^−1. After 1 h of incubation, the tissue was filmed again for 60 s.
The contractible hindgut of mosquito consists of a funnel-shaped pylorus located immediately after the posterior midgut, followed by a long, coiled ileum, and a bulbous colon which contains the rectal pads, and a tapering rectal tube at the posterior end.^35 To analyze each video, the hindgut contraction number was counted by observing the contraction occurring at the junction between the pyloric sphincter and the most anterior ileum. The hindgut contraction rate was expressed as the number of contractions observed over 60 s. The fold change in contraction rate was calculated as the contraction rate estimated at 1 h post treatment divided by the basal rate estimated before the treatment with the chemicals. Each treatment was repeated with 30 female mosquitoes independently. All statistical analyses were done by PRISM software (v8, GraphPad). The differences in fold-change of the contraction rates among treatments were analyzed using the nonparametric Kruskal-Wallis test, followed by the Dunn's multiple comparison test. […].

[3] = biological target: recombinant tick kinin receptor (BMLK3) (Rhipicephalus microplus, UniProt Q9NHA4); test: Dose-response dual-addition calcium fluorescence assay on BMLK3 cells; type: cell-based; conditions: for pEC50: read-out: BMLK3 EC50; for activity type in dose-response assay, in words: Rhimi-K-1 1 μmol L^−1
[4] = tested on: vector-only (V/O) CHO-K1 cells; test: Dose-response dual-addition calcium fluorescence assay on vector-only cells; type: cell-based
[5] = tested on: Drosophila melanogaster renal organs; conditions: cited from earlier work
[6] = tested on: Rhodnius prolixus hindgut; conditions: cited from earlier work
[7] = tested on: Aedes aegypti kinin receptor; test: Calcium fluorescence assay on recombinant mosquito kinin receptor (IGKN G12 cell line); type: cell-based; conditions: for calcium response, in words: 100 μmol L^−1
Method: Three identified potent small molecule antagonists, and as control, a small molecule of very low antagonistic activity, all identified as part of this study, were tested in the calcium fluorescence assay, as above, for their activity on the cell line expressing the Aedes aegypti kinin receptor (IGKN G12 cell line). Receptor cloning, expression and clonal cell selection were as described previously.^3′ The recombinant tick kinin receptor (BMLK3) was tested simultaneously as positive control for the assay. BMLK3 and IGKN G12 cells were seeded in 96-well-plates (Greiner Bio-One®, B/C 655097) at a density of […] cells in 100 μL maintenance medium. Cells were prepared as described above for the calcium fluorescence assay; and each well was added with 90 μL assay buffer (see Section 2.3, HHBS plus dye efflux inhibitor).
For each compound three 10× concentrations (100, 300, 1000 μmol L^−1) were prepared and 10 μL of each was added manually into one well of each cell line for a final concentration of 10, 30 and 100 […]. After 5 min incubation at room temperature, a kinin receptor agonist peptide, the kinin agonist analog 1728^28 [[Aib]FF[Aib]WGamide, RoyoBiotech, Shanghai, China] was added manually (50 μL; 3× stock in HHBS) into each well for a final concentration of 1 μmol L^−1. The cellular calcium response in RFU was immediately recorded continuously for 60 s with 3 s intervals between reads using a Clariostar plate reader. The average RFU of these 20 reads represented the raw response to each treatment. Three independent replicates were run for each concentration and compound. The percentage of signal reduction with respect to the control that contained solvent and the kinin agonist analog 1728 was calculated using the average RFU registered for the treatment with each small molecule divided by the average RFU recorded for the control (100%). Data analyses were performed with the percentage reduction of the three independent replicates. PRISM (Graphpad, San Diego. CA, USA) was utilized for analysis and graphics.

[8] = tested on: R. microplus kinin receptor; test: High-throughput dual-addition calcium fluorescence screen on BMLK3 cells; type: cell-based, Rhipicephalus microplus; conditions: compound 2 μmol L^−1, 5 min, then FFFSWGa 500 nmol L^−1
[9] = biological target: T1, recombinant tick kinin receptor (BMLK3) (Rhipicephalus microplus, UniProt Q9NHA4); test: dual-addition intracellular calcium fluorescence assay, antagonist dose-response (inhibition of Rhimi-K-1 response in BMLK3 cells); type: cell-based; conditions: FIG. 6 SAR analysis; BMLK3 CHO-K1 cells stably expressing R. microplus kinin receptor; agonist Rhimi-K-1 (QFSPWGamide) 1 μmol L^−1
T1 construct: intracellular calcium fluorescence; agonist Rhimi-K-1 (QFSPWGamide)
T1 sequence (Q9NHA4 1-397): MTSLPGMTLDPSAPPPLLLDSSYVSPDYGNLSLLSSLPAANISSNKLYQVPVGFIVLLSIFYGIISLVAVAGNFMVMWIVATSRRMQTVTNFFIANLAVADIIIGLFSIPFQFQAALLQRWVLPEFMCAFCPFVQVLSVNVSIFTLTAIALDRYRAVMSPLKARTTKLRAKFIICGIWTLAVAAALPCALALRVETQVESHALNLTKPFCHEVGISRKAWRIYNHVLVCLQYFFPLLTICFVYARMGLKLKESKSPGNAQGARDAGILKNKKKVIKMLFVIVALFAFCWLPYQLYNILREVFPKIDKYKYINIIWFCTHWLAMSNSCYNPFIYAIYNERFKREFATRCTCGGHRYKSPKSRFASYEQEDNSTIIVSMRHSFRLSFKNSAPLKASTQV

[10] = compound 10 μmol L^−1, 1 h after 1728 (data not shown)
[11] = Table 5 analogs, first addition
[12] = Table 5 analogs, second addition Rhimi-K-1 1 μmol L^−1, read-out: BMLK3 antagonist IC50
[13] = summary of 36 validated antagonist hits, BMLK3 cells
[14] = summary of 36 validated antagonist hits, BMLK3 cells, read-out: BMLK3 IC50
[15] = Table 5 analogs, V/O cells, read-out: V/O antagonist IC50
[16] = summary of 36 validated antagonist hits, vector-only cell (V/O)
[17] = first addition, 20 concentrations 28 nM-25 μM
[18] = second addition Rhimi-K-1 1 μmol L^−1, read-out: BMLK3 IC50
[19] = V/O cells, second addition Rhimi-K-1 1 μmol L^−1, read-out: V/O antagonist IC50

Row | Compound | HDF average % growth inhibition [1] [%] | effect on hindgut contraction elicited by 1728, in words [2] | Inhibitory Efficacy at 12 μM ([3]; BMLK3 cells) [%] | pEC50 [3, 13] | pIC50 [3, 14] | pEC50 ([4]; Table 5 analogs, V/O cells) | pIC50 [4, 15] | pEC50 [4, 16] | pIC50 [4, 16] | activity type in dose-response assay, in words ([3]; BMLK3 cells) | further results
1 | O=C1C(=Cc2ccccc2)SC(=S)N1NS(=O)(=O)c1ccccc1 [SACC-0412060] | 6.873 | inhibited the increased rate of muscle contraction | 91.75 | 5.02 | 5.72 | 5.03 | 6.27 | 5.03 | 6.27 |  | hindgut contraction rate, in words [2, 10]: no increase in the hindgut contraction rate was observed; effect on hindgut contraction elicited by 1728, in words ([2]; listed as SACC-0412000): significantly reduced the mobility of the hindgut; pEC50 [3, 11]: 5.02; pIC50 [3, 12]: 5.72
2 | Cc1ccc(S(=O)(=O)NN2C(=O)C(=Cc3cccc4ccccc34)SC2=S)cc1 [SACC-0412062] | 8.117 | inhibited the increased rate of muscle contraction | 50.31 |  |  | 5.20 | 5.13 | 5.20 | 5.13 |  | 
3 | [Aib]FF[Aib]WGamide [Molecule 1728] |  |  |  |  |  |  |  |  |  |  | increase of contraction rate, solvent plus 1728 group ([2]; 1728 10 μmol L^−1, solvent control of SACC-0412062 test (FIG. 8B), 1 h): two-fold; increase of fluid secretion from renal organs, in words ([5]; 10^−7 M range): not active; concentration active in diuretic assays [5]: 25 µM; concentration inducing hindgut contraction [6]: 10^−16 M
4 | Cc1ccc(S(=O)(=O)NN2C(=O)C(=Cc3ccc(C(=O)O)cc3)SC2=S)cc1 [SACC-0412064] | −7.067 | did not differ | 0.31 | 4.89 | 6.93 | 4.76 | 5.83 | 4.76 | 5.83 | very weak partial antagonists | calcium response, in words [7]: did not antagonize the calcium response; pEC50 [3, 11]: 4.89; pIC50 [3, 12]: 6.93
5 | NPFHAWG-NH2 [aedeskinin 2, reference compound] |  |  |  |  |  |  |  |  |  |  | hindgut contraction rate, in words ([2]; 1 μmol L^−1, 1 h (data not shown)): increase of hindgut contraction rate
6 | C/C(CCC(C)C)=N\N=C(/S)NCc1ccccc1 [SACC-0018618] | 7.327 |  | 55.77 | < 4.60 | 5.37 |  |  | < 4.60 | < 4.60 | full agonist | pEC50 [3, 17]: < 4.60; pIC50 [3, 18]: 5.37; antagonist Io (%) [8]: 58%; pEC50 ([4]; V/O cells, first addition): < 4.60; pIC50 [4, 19]: < 4.60
7 | C1C1═CC═C(\C═C2\SC(═O)N(NS(═O)(═O)C3═CC═CC═C3)C2═S)C═C1 [SACC-0064443] |  |  |  |  |  |  |  |  |  |  | pIC50 [9]: 6.18
8 | CCCC[n+]1c(/C=C2/C=CN(CC)c3ccc(C)cc32)ccc2ccccc21 [SACC-0048555] | −9.767 |  | 107.39 | 5.05 | 5.82 |  |  | 4.89 | 5.44 | full agonist | pEC50 [3, 17]: 5.05; pIC50 [3, 18]: 5.82; antagonist Io (%) [8]: 54%; pEC50 ([4]; V/O cells, first addition): 4.89; pIC50 [4, 19]: 5.44
9 | CCOc1cc(C=C2SC(=S)N(NS(=O)(=O)c3ccc(C)cc3)C2=O)ccc1O [SACC-0412066] | 2.02 | inhibited the increased rate of muscle contraction | 79.17 |  |  | < 4.60 | 5.98 | < 4.60 | 5.98 |  | inhibition of response compared to control ([7]; 30 μmol L^−1, 1728 1 μmol L^−1): 84%; calcium response, in words [7]: elicited a strong calcium response; hindgut contraction rate, in words [2, 10]: no increase in the hindgut contraction rate was observed; effect on hindgut contraction elicited by 1728, in words ([2]; listed as -10412066): significantly reduced the mobility of the hindgut; effect on hindgut contraction elicited by 1728, in words ([2]; listed as SACC-0412006): did not observe any increase in the hindgut contraction rate
